Assay results: patent publication US5473039A, “Polypeptide analogs of apolipoprotein E, diagnostic systems and methods using the analogs” (The Scripps Research Institute, priority 1991, dated 1995)
Ends that are not written are not given here.

What was measured:
fibroblast LDL receptors = target: T1, fibroblast LDL receptors (Homo sapiens, UniProt P01130); assay: 125I-LDL binding to fibroblasts; conditions: for effect of substitution on ability to inhibit binding of 125I-LDL to fibroblasts: substitution at both positions of tandem peptide
T1 construct: transferred to DMEM medium with 10% lipoprotein-depleted serum (LPDS) for 48 hr to upregulate the LDL receptors; endogenous in cells; host or cells: normal fibroblasts
T1 sequence (P01130 22-860): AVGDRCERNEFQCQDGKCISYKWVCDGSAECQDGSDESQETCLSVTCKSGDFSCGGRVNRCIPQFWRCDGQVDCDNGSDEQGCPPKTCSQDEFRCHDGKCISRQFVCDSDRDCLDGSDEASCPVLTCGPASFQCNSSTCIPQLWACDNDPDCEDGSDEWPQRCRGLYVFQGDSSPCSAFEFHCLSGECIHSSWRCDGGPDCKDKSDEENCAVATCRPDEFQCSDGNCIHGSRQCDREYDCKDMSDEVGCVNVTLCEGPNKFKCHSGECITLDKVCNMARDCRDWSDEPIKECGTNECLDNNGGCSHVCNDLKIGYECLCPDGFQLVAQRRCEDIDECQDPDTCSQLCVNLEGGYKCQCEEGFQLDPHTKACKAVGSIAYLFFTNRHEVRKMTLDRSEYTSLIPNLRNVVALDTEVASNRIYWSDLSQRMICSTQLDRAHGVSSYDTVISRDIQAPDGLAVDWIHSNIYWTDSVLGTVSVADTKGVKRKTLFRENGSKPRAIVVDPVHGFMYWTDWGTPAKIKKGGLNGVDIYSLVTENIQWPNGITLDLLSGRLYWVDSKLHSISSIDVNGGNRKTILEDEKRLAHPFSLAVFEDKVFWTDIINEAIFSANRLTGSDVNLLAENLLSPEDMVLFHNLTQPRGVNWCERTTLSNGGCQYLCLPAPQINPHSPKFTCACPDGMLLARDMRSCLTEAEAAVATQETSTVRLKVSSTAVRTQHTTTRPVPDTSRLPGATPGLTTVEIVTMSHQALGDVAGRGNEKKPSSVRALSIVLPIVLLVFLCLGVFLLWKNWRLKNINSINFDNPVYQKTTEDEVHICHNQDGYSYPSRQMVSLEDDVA
Excerpt: The role of specific amino acids within residues 141-155 of intact apo E has been studied by Lalazar et al., J. Biol. Chem., 263:3542 (1988) with human apo E variants containing single amino acid substitutions. The variants were produced in a bacterial expression system complexed with the phospholipid, dimyristoylphosphatidylcholine (DMPC) and tested for their ability to bind to fibroblast LDL receptors. Lalazar et al., J. Biol. Chem., 263:3542 (1988). To confirm that the tandem peptide was bound by the LDL receptor and to identify amino acids within this peptide that were critical for binding, three tandem peptides were prepared as described in Example 1 that contained the same amino acid substitutions at both positions in the tandem sequence. The changes included substitutions of the basic amino acids Lys 143 to Ala, Arg 150 to Ala, and Leu 144 with an alpha helix disrupting amino acid, Pro. ^125 I-LDL at a specific activity of 700-900 cpm/ng (>99% precipitable by 10% TCA) was used for the binding assay as described in Example 9. Normal fibroblasts were plated in 16 mm culture dishes, grown for 72-96 hr in DMEM medium with 10% fetal bovine serum (FBS) and then transferred to DMEM medium with 10% lipoprotein-depleted serum (LPDS) for 48 hr to upregulate the LDL receptors. The amount of ^125 I-LDL bound per well was normalized to the protein content of each well, which was measured with the Bio-Rad protein assay reagent using bovine serum albumin (BSA) as a standard.

[1] = system: ovarian theca/interstitial cells; assay: ovarian androgen (androstenedione) production, LH-stimulated cultures; format: cell-based, rats; conditions: non-conjugated, monomeric form
Excerpt: The cell system used to examine the effect of various peptides and conjugates on ovarian androgen production was that described by Curtiss et al., J. Biol. Chem., 263:10965, (1988). Briefly, hypophysectomized (pituitary removed) immature female rats are sacrificed by cervical dislocation. The ovaries taken from the rats were trimmed free of fat and other non-ovarian tissues, cut into approximately six to eight pieces per ovary and dissociated in a solution of collagenase Dnaase which degrades the connective tissue releasing cell clusters. Approximately one to two hours of 37C incubation is required to dissociate the tissue. The cells were washed three times with fresh McCoy's 5A modified medium supplemented with glutamine and penicillin/streptomycin. No serum was added to this medium. The cells were cultured over night in 10 ml of medium in a T-25 flask to allow the non-steroidogenic cells to adhere. The next day non-adherent cells were recovered, washed three times with fresh media, counted and plated at a density of 1×10^3/ ml aliquotting 0.2 ml per well of a 96-well microtiter plate. All media in the experiment contains luteinizing hormone (LH) at 4 ng/ml and human high density lipoprotein (HDL) at 300 μg protein/mi. Monomeric peptides, peptide-BSA conjugates and self-conjugated peptide preparations at various concentrations (0.2 to 50 μg/ml) were added to the cells. The cells were then cultured for 48 hours at 37C, the supernatants were recovered, transferred to a clean 96-well microtiter plate and kept at -20C until the concentrations of androstenedione and progesterone were measured by radioimmunoassay. Each data point represents the average of measured androstenedione concentrations in four wells per treatment, and the standard error was less than 10% for all data points.
The ability of tandem Apo E peptide p(141-155)2 and self-conjugates of this peptide to affect ovarian androgen production was examined using the assay described in Example 4. […] After 48 hours of culture, the supernatants were collected, the androstenedione concentration measured by radioimmunoassay. […]

[2] = system: Human peripheral blood mononuclear (PBM) cells; assay: PHA-stimulated PBM cell proliferation in serum-free CFBI medium; format: cell-based; conditions: for IC50: read-out: Average Specific Activity (peptide concentration that causes a 50% reduction in activity)
Experimental: In these studies, human peripheral blood mononuclear (PBM) cells were isolated and assayed for phytohemagglutinin (PHA)-stimulated proliferation as described by Pepe et al (J. Immunol., 136:3716-3723, 1986) except that the cells were resuspended and cultured in a serum-free and protein-free CFBI medium as described by Shive et al, Proc. Natl. Acad. Sci. […] After 48 h the cultures were pulsed for 18 h with […] of [^3 H]-methylthymidine and harvested onto glass fiber filters. Radioactivity of the filters was counted in a Beckman liquid scintillation counter. […] The average biological activity of each polypeptide for inhibiting lymphocyte […] proliferation is shown in Table 6, and is expressed as an average specific activity, which is the peptide concentration that causes a 50% reduction in activity.

[3] = system: Human peripheral blood mononuclear (PBM) cells; assay: PHA-stimulated lymphocyte proliferation (3H-thymidine uptake); format: cell-based; conditions: for ED50 or dose of peptide required to inhibit lymphocyte proliferation 50%: Example 17
Excerpt: A lymphocyte cell culture system was used to examine the ability of various polypeptides and conjugates to mimic the ability of Apo E to inhibit lymphocyte differentiation as evidence by proliferation.
Human peripheral blood mononuclear (PBM) cells are isolated from whole blood on a Ficoll-Hypaque gradient. The collected PBMs are washed three times with fresh medium (RPMI-1640 plus 5% fetal bovine serum, glutamine, penicillin, streptomycin and HEPES buffer). After washing, the cells are counted and set at a density of 1×10^5 /ml. For culture, 0.2 ml of the cells are plated per well of a 96-well microtiter plate. The peptide or conjugate is added to the wells in a 50 ul volume that can be either filter or UV sterilized. The typical timing for this experiment is to expose the cells to the Apo E polypeptide or self-conjugate over night. PHA, the mitogen that stimulates lymphocyte growth and proliferation, is added the next day. Forty-eight hours after the addition of PHA, 1 uCi of ^3 H-thymidine is added per well in a 1 ul volume and 18-24 hours later the cells are harvested on a mash. The mash cell harvester functions to collect the cells on filter paper where they are washed with buffer to remove free ^3 H-thymidine. The filter papers are dried, put into scintillation vials with scintillation cocktail and the B emissions obtained. Each data point collected represents the average thymidine uptake in four wells, and the standard error was less than 10% for all data points.
Various concentrations of various Apo E peptide were added to cultures that contained 8×10^5 peripheral blood mononuclear cells per ml. The cells were cultured at 37C and RPMI with 5% serum. All cells were exposed to PHA at 24 hours, labeled with 3H-thymidine at 72 hours and harvested at 90 hours. The counts per minute (cpm) of 3H-thymidine in the harvested cells was measured, and the data are expressed as the mean of four wells per treatment as a measure of thymidine uptake (x 1000 cpm). The standard deviation was less than 10% for all means.

LDL receptor = LDL receptor (Homo sapiens, UniProt P01130); assay: fibroblast 125I-LDL degradation; format: cell-based; design: transferred to DMEM medium with 10% lipoprotein-depleted serum (LPDS) for 48 hr to upregulate the LDL receptors; endogenous in cells; host or cells: normal fibroblasts; conditions: molar basis
Sequence of LDL receptor (P01130 22-860): as above
Experimental: A trimer of the p141-155 peptide, p(141-155)3, was synthesized as in Example 1 and its activity compared with p(141-155) (monomeric) and with p(141-155)2 (dimeric) peptide. Normal fibroblasts were plated in wells of a 96-well culture plate and grown for 96 hr in DMEM medium with 10% FBS. The cells were transferred to DMEM medium with 10% LPDS for 48 hr to up regulate the LDL receptors. The LDL degradation assay was performed according to Example 9 with 2 μg/ml of ^125 I-LDL (300-500 cpm/ng) in 0.2 ml/well in DMEM medium with 10% LPDS and incubated for 5 hr at 37° C. The supernatants removed from the wells were extracted with 10% TCA. The TCA soluble counts were normalized to protein content per well as measured by the Bio-Rad protein assay.

## LRKPRKRLLRDADDLLRKPRKRLLRDADDL [144 leu--pro, (LRKPRKRLLRDADDL)2]
Fibroblast LDL receptors; at 60 μM
  activity in inhibiting 125I-LDL binding to fibroblasts: no activity

## RGLSAIRERL [p172-182, reference compound]
[1]
  effect on androgen secretion: no effect

## LRALRKRLLRDADDLLRALRKRLLRDADD [p(K143 --A)2]
Fibroblast LDL receptors
  effect of substitution on ability to inhibit binding of 125I-LDL to fibroblasts: smallest effect
[2]
  peptide concentration above which uptake of tritiated thymidine / lymphocyte proliferation was inhibited: above 4 uM
  IC50: 5.6 ± 1.7 µM

## LRKLRKRLLRDADDLLRKLRKRLLRDADD-LRKLRKRLLRDADDL [p(141-155)3]
[3]
  ED50 or dose of peptide required to inhibit lymphocyte proliferation 50%: 7 µM
LDL receptor
  effectiveness in inhibiting fibroblast 125I-LDL degradation relative to the dimeric peptide: 15 times

## LRKLRKRLLADADDLLRKLRKRLLADADD [p(K150 --A)2]
Fibroblast LDL receptors
  effect of substitution on ability to inhibit binding of 125I-LDL to fibroblasts: without significant alterations in the biological activity
[2]
  peptide concentration above which uptake of tritiated thymidine / lymphocyte proliferation was inhibited: above 4 uM
  IC50: 7.5 ± 3 µM

## Y(LRKLRKRLLRDADDL)4 [Tetramer]
[3]
  ED50 or dose of peptide required to inhibit lymphocyte proliferation 50%: 1.2 µM
[2]; molar basis
  inhibitory activity relative to the dimer: twice
[2]
  IC50: 2.8 ± 1.3 µM

## Self-conjugated apo AI95-105: self-conjugated control peptide of apo AI residues 95-105 (AKVQPYLDDFQ; also: self-conjugated; UniProt P02647 119-129, looked up, fragment) [reference compound]
[3]; 40 μg/ml, cells washed three times at 24 hr prior to PHA
  3H-Thymidine Uptake (cpm ± SD), With Washing: 64,524 ± 4,200 cpm
[3]; 40 μg/ml, no washing
  3H-Thymidine Uptake (cpm ± SD), No Washing: 83,480 ± 4,027 cpm
